Patent publication US12139475B2, “2-oxindole compounds” (CHEMOCENTRYX, INC., priority 2016, dated 2024)

Biological target: T1, CCR(9) (Homo sapiens, UniProt P51686)
T1 construct: MOLT-4 cells were collected by centrifugation at 400×g at room temperature, then suspended at 50 million/ml in human serum; host or cells: MOLT-4
T1 sequence (P51686 1-369): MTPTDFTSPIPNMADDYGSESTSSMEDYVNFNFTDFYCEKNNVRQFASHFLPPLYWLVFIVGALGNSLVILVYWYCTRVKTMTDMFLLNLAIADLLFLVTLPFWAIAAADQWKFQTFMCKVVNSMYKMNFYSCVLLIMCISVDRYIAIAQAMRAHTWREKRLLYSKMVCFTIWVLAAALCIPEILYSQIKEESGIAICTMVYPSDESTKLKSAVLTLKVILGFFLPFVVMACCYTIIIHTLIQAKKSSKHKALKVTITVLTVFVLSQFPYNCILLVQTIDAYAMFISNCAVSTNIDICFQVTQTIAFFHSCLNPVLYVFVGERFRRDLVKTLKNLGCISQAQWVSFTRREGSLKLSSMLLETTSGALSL
Assay: Serum chemotaxis assay (MOLT-4 cells, TECK-induced migration, ChemoTX)
Format: cell-based
Conditions: MOLT-4 cells in human serum, migration to recombinant human TECK, 90 minutes at 37° C.
Experimental: MOLT-4 cells were obtained from the American Type Culture Collection (Manassas, VA) and cultured in RPMI tissue culture medium supplemented with 10% fetal calf serum (FCS) in a humidified 5% CO2 incubator at 37° C. Recombinant human chemokine proteins TECK was obtained from R&D Systems (Minneapolis, MN). ChemoTX™ chemotaxis microchambers were purchased from Neuro Probe (Gaithersburg, MD). CyQUANT™ cell proliferation kits were purchased from Molecular Probes (Eugene, Oregon). Calcium indicator dye Fluo-4 AM was purchased from Molecular Devices (Mountain View, CA).
A serum chemotaxis assay was used to determine the efficacy of potential receptor antagonists at blocking the migration mediated through chemokine receptors, such as CCR(9). This assay was performed using the ChemoTX® microchamber system with a 5-μm pore-sized polycarbonate membrane. MOLT-4 cells were collected by centrifugation at 400×g at room temperature, then suspended at 50 million/ml in human serum, containing 50 mM HEPES (final pH of 7.2). The compound being tested or an equivalent volume of its solvent (DMSO) was then added to the cell/serum mixture at a final DMSO concentration of 0.125% (v/v), and this mixture was then incubated together at 37° C. for one hour. Separately, recombinant human TECK was diluted with chemotaxis buffer (HBSS+0.1% BSA), generally spanning a range from 0.1 nM to 500 nM, after which 29 μl of diluted chemokine was placed in the lower wells of the ChemoTX® plate. The 5-μm (pore size) polycarbonate membrane was placed onto the plate, and 20 μL of the cell/compound mixture was transferred onto each well of the membrane. The plates were incubated at 37° C. for 90 minutes, after which the polycarbonate membranes were removed and 5 μl of the DNA-intercalating agent CyQUANT (Invitrogen, Carlsbad, CA) was added to the lower wells. The amount of fluorescence, corresponding to the number of migrated cells, was measured using a Spectrafluor Plus plate reader (TECAN, San Jose, CA).
The A2 values were calculated from the following equation, comparing the efficacy of the test compound with that of the DMSO-only control at equi-active chemokine levels: Log(A2)=log[drug(M)]−log[(A′/A)−1] where A reflects the potency of the agonist in the absence of antagonist and A′ reflects the potency of the agonist in the presence of antagonist at a given concentration of drug ([drug(M)]). In Vivo Efficacy Models for Human IBD

| Structure (SMILES) | Chemotaxis A2 |
| --- | --- |
| CC1(C)CCc2cc(C3(C)C(=O)N(c4cccc(C(=O)O)c4)c4cc(Cl)ccc43)ccc2O1 (stereo not shown) | ++ (500 nM > A2 ≥ 100 nM) |
| CC(C)(C)c1ccc(C2(C)C(=O)N(c3cccc(C(=O)O)c3)c3ccc(Cl)cc32)cc1F (stereo not shown) | +++ (100 nM > A2) |
| Cc1ccc2c(c1)C(C)(c1ccc(C(C)(C)C)cc1)C(=O)N2c1cccc(C(=O)O)c1 (stereo not shown) | ++ (500 nM > A2 ≥ 100 nM) |
| Cc1ccc2c(c1)C(C)(c1ccc(C(C)(C)C)cc1)C(=O)N2c1ccc(C(=O)O)cc1 (stereo not shown) | ++ (500 nM > A2 ≥ 100 nM) |
| Cc1cc(C(C)(C)C)ccc1C1(C)C(=O)N(c2ccc(C(=O)O)cc2)c2ccc(Cl)cc21 (stereo not shown) | ++ (500 nM > A2 ≥ 100 nM) |
| CC(C)(C)c1ccc([C@]2(C)C(=O)N(c3ccc(F)c(C(=O)O)c3)c3ccc(Cl)cc32)cc1 | +++ (100 nM > A2) |
| Cc1ccc(N2C(=O)[C@@](C)(c3ccc(C(C)(C)C)cc3)c3cc(Cl)ccc32)cc1C(=O)O | +++ (100 nM > A2) |
| Cc1ccc(N2C(=O)[C@@](C)(c3ccc4c(c3)CCC(C)(C)O4)c3cc(Cl)ccc32)cc1C(=O)O | +++ (100 nM > A2) |
| CC1(C)CCc2cc([C@]3(C)C(=O)N(c4ccc(C(=O)O)cc4)c4ccc(Cl)cc43)ccc2O1 | +++ (100 nM > A2) |
| CC1(C)CCc2cc([C@]3(C)C(=O)N(c4ccc(F)c(C(=O)O)c4)c4ccc(Cl)cc43)ccc2O1 | +++ (100 nM > A2) |
| CC1(C)CCc2cc([C@]3(C)C(=O)N(c4ccc(Cl)c(C(=O)O)c4)c4ccc(Cl)cc43)ccc2O1 | +++ (100 nM > A2) |
| CC1(C)CCc2cc([C@]3(C)C(=O)N(c4ccc(C(=O)O)c(Cl)c4)c4ccc(Cl)cc43)ccc2O1 | +++ (100 nM > A2) |
| CC1(C)CCc2cc([C@]3(C)C(=O)N(c4cccc(CC(=O)O)c4)c4ccc(Cl)cc43)ccc2O1 | +++ (100 nM > A2) |
| Cc1ccc2c(c1)[C@](C)(c1ccc3c(c1)CCC(C)(C)O3)C(=O)N2c1cccc(C(=O)O)c1 | +++ (100 nM > A2) |
| Cc1ccc2c(c1)[C@](C)(c1ccc3c(c1)CCC(C)(C)O3)C(=O)N2c1ccc(C(=O)O)cc1 | +++ (100 nM > A2) |
| CC1(C)CCc2cc([C@]3(C)C(=O)N(c4ccc(OC(F)(F)F)c(C(=O)O)c4)c4ccc(Cl)cc43)ccc2O1 | +++ (100 nM > A2) |
| Cc1cc(N2C(=O)[C@@](C)(c3ccc4c(c3)CCC(C)(C)O4)c3cc(Cl)ccc32)ccc1C(=O)O | +++ (100 nM > A2) |
| CC1(C)CCc2cc([C@]3(C)C(=O)N(c4ccc(CCC(=O)O)cc4)c4ccc(Cl)cc43)ccc2O1 | +++ (100 nM > A2) |

| Structure (SMILES) | Chemotaxis A2 |
| --- | --- |
| COc1cc(N2C(=O)[C@@](C)(c3ccc4c(c3)CCC(C)(C)O4)c3cc(Cl)ccc32)ccc1C(=O)O | +++ (100 nM > A2) |
| CC1(C)CCc2cc([C@]3(C)C(=O)N(c4cccc(CCC(=O)O)c4)c4ccc(Cl)cc43)ccc2O1 | +++ (100 nM > A2) |
| CC(C(=O)O)c1cccc(N2C(=O)[C@@](C)(c3ccc4c(c3)CCC(C)(C)O4)c3cc(Cl)ccc32)c1 (stereo partly shown) | +++ (100 nM > A2) |
| CC1(C)CCc2cc([C@]3(C)C(=O)N(c4cccc(C(C)(C)C(=O)O)c4)c4ccc(Cl)cc43)ccc2O1 | +++ (100 nM > A2) |
| CC(c1cccc(C(=O)O)c1)N1C(=O)[C@@](C)(c2ccc3c(c2)CCC(C)(C)O3)c2cc(Cl)ccc21 (stereo partly shown) | +++ (100 nM > A2) |
| CC1(C)CCc2cc([C@]3(C)C(=O)N(c4cccc(OCC(=O)O)c4)c4ccc(Cl)cc43)ccc2O1 | +++ (100 nM > A2) |
| CC1(C)CCc2cc([C@]3(C)C(=O)N(c4ccc(OCC(=O)O)cc4)c4ccc(Cl)cc43)ccc2O1 | +++ (100 nM > A2) |
| CC1(C)CCc2cc([C@]3(C)C(=O)N(c4ccc(CCCC(=O)O)cc4)c4ccc(Cl)cc43)ccc2O1 | +++ (100 nM > A2) |
| CCOc1ccc(N2C(=O)[C@@](C)(c3ccc4c(c3)CCC(C)(C)O4)c3cc(Cl)ccc32)cc1C(=O)O | +++ (100 nM > A2) |
| CC(C)Oc1ccc(N2C(=O)[C@@](C)(c3ccc4c(c3)CCC(C)(C)O4)c3cc(Cl)ccc32)cc1C(=O)O | +++ (100 nM > A2) |
| COc1cc(C(=O)O)cc(N2C(=O)[C@@](C)(c3ccc4c(c3)CCC(C)(C)O4)c3cc(Cl)ccc32)c1 | +++ (100 nM > A2) |
| Cc1cc(C(=O)O)cc(N2C(=O)[C@@](C)(c3ccc4c(c3)CCC(C)(C)O4)c3cc(Cl)ccc32)c1 | +++ (100 nM > A2) |
| CC1(C)CCc2cc([C@]3(C)C(=O)N(c4ccc(C(F)(F)F)c(C(=O)O)c4)c4ccc(Cl)cc43)ccc2O1 | +++ (100 nM > A2) |
| CC1(C)CCc2cc([C@]3(C)C(=O)N(c4ccccc4CC(=O)O)c4ccc(Cl)cc43)ccc2O1 | +++ (100 nM > A2) |
| CC(C)COc1ccc(N2C(=O)[C@@](C)(c3ccc4c(c3)CCC(C)(C)O4)c3cc(Cl)ccc32)cc1C(=O)O | +++ (100 nM > A2) |
| CC1(C)CCc2cc([C@]3(C)C(=O)N(c4cc(Cl)cc(C(=O)O)c4)c4ccc(Cl)cc43)ccc2O1 | +++ (100 nM > A2) |
| CC1(C)CCc2cc([C@]3(C)C(=O)N(c4cc(F)cc(C(=O)O)c4)c4ccc(Cl)cc43)ccc2O1 | +++ (100 nM > A2) |

Second part, the compound after the results:

| Chemotaxis A2 | Structure (SMILES) |
| --- | --- |
| +++ (100 nM > A2) | CC1(C)CCc2cc([C@]3(C)C(=O)N(c4ccc(C(=O)O)c(F)c4)c4ccc(Cl)cc43)ccc2O1 |
| +++ (100 nM > A2) | CCc1ccc(N2C(=O)[C@@](C)(c3ccc4c(c3)CCC(C)(C)O4)c3cc(Cl)ccc32)cc1C(=O)O |
| +++ (100 nM > A2) | CC1(C)CCc2cc([C@]3(C)C(=O)N(Cc4cccc(C(=O)O)c4)c4ccc(Cl)cc43)ccc2O1 |
| +++ (100 nM > A2) | CC1(C)CCc2cc([C@]3(C)C(=O)N(Cc4ccccc4C(=O)O)c4ccc(Cl)cc43)ccc2O1 |
| +++ (100 nM > A2) | COc1ccc(CN2C(=O)[C@@](C)(c3ccc4c(c3)CCC(C)(C)O4)c3cc(Cl)ccc32)cc1C(=O)O |
| +++ (100 nM > A2) | CC1(C)CCc2cc([C@]3(C)C(=O)N(Cc4ccc(F)c(C(=O)O)c4)c4ccc(Cl)cc43)ccc2O1 |
| +++ (100 nM > A2) | Cc1ccc(CN2C(=O)[C@@](C)(c3ccc4c(c3)CCC(C)(C)O4)c3cc(Cl)ccc32)cc1C(=O)O |
| +++ (100 nM > A2) | Cc1ccc(CN2C(=O)[C@@](C)(c3ccc4c(c3)CCC(C)(C)O4)c3cc(Cl)ccc32)c(C(=O)O)c1 |
| +++ (100 nM > A2) | CC1(C)CCc2cc([C@]3(C)C(=O)N(Cc4ccc(F)cc4C(=O)O)c4ccc(Cl)cc43)ccc2O1 |
| +++ (100 nM > A2) | COc1ccc(CN2C(=O)[C@@](C)(c3ccc4c(c3)CCC(C)(C)O4)c3cc(Cl)ccc32)c(C(=O)O)c1 |
| +++ (100 nM > A2) | CC1(C)CCc2cc([C@]3(C)C(=O)N(Cc4ccc(Cl)cc4C(=O)O)c4ccc(Cl)cc43)ccc2O1 |
| +++ (100 nM > A2) | Cc1cc(CN2C(=O)[C@@](C)(c3ccc4c(c3)CCC(C)(C)O4)c3cc(Cl)ccc32)ccc1C(=O)O |
| +++ (100 nM > A2) | Cc1ccc(C(=O)O)c(CN2C(=O)[C@@](C)(c3ccc4c(c3)CCC(C)(C)O4)c3cc(Cl)ccc32)c1 |
| +++ (100 nM > A2) | Cc1cccc(CN2C(=O)[C@@](C)(c3ccc4c(c3)CCC(C)(C)O4)c3cc(Cl)ccc32)c1C(=O)O |
| +++ (100 nM > A2) | Cc1c(CN2C(=O)[C@@](C)(c3ccc4c(c3)CCC(C)(C)O4)c3cc(Cl)ccc32)cccc1C(=O)O |
| +++ (100 nM > A2) | Cc1cccc(C(=O)O)c1CN1C(=O)[C@@](C)(c2ccc3c(c2)CCC(C)(C)O3)c2cc(Cl)ccc21 |
| +++ (100 nM > A2) | CC1(C)CCc2cc([C@]3(C)C(=O)N(Cc4cc(Cl)ccc4C(=O)O)c4ccc(Cl)cc43)ccc2O1 |
| +++ (100 nM > A2) | CC1(C)CCc2cc([C@]3(C)C(=O)N(Cc4cccc(Cl)c4C(=O)O)c4ccc(Cl)cc43)ccc2O1 |
| ++ (500 nM > A2 ≥ 100 nM) | COc1cccc(C(=O)O)c1CN1C(=O)[C@@](C)(c2ccc3c(c2)CCC(C)(C)O3)c2cc(Cl)ccc21 |
| +++ (100 nM > A2) | COc1cccc(CN2C(=O)[C@@](C)(c3ccc4c(c3)CCC(C)(C)O4)c3cc(Cl)ccc32)c1C(=O)O |
